Activity calls are given as the source filed them. How the calls were made is not given here.
System: CCRIS mutagenicity, Ames/micronucleus/aberration tests
Assay: CCRIS mutagenicity studies
[1] = Test System: AMES SALMONELLA TYPHIMURIUM, Strain/Indicator: TA98, Metabolic Activation: NONE, Method: STANDARD PLATE
[2] = Test System: AMES SALMONELLA TYPHIMURIUM, Strain/Indicator: TA100, Metabolic Activation: NONE, Method: STANDARD PLATE
[3] = Test System: AMES SALMONELLA TYPHIMURIUM, Strain/Indicator: TA98, Metabolic Activation: RAT, LIVER, S-9, AROCLOR 1254, Method: STANDARD PLATE
[4] = Test System: AMES SALMONELLA TYPHIMURIUM, Strain/Indicator: TA100, Metabolic Activation: RAT, LIVER, S-9, AROCLOR 1254, Method: STANDARD PLATE
[5] = Test System: AMES SALMONELLA TYPHIMURIUM, Strain/Indicator: TA1535, Metabolic Activation: NONE, Method: STANDARD PLATE
[6] = Test System: AMES SALMONELLA TYPHIMURIUM, Strain/Indicator: TA1535, Metabolic Activation: RAT, LIVER, S-9, AROCLOR 1254, Method: STANDARD PLATE
[7] = Test System: AMES SALMONELLA TYPHIMURIUM, Strain/Indicator: TA1537, Metabolic Activation: NONE, Method: STANDARD PLATE
[8] = Test System: AMES SALMONELLA TYPHIMURIUM, Strain/Indicator: TA1538, Metabolic Activation: NONE, Method: STANDARD PLATE

SMILES: N#CCCO
- mutagenic call (Test System: AMES SALMONELLA TYPHIMURIUM, Strain/Indicator: TA97, Metabolic Activation: HAMSTER, LIVER, S-9, AROCLOR 1254 (10 OR 30%), Method: PREINCUBATION): inactive; negative
- mutagenic call (Test System: AMES SALMONELLA TYPHIMURIUM, Strain/Indicator: TA97, Metabolic Activation: NONE, Method: PREINCUBATION): inactive; negative
- mutagenic call (Test System: AMES SALMONELLA TYPHIMURIUM, Strain/Indicator: TA97, Metabolic Activation: RAT, LIVER, S-9, AROCLOR 1254 (10 OR 30%), Method: PREINCUBATION): inactive; negative
- mutagenic call (Test System: AMES SALMONELLA TYPHIMURIUM, Strain/Indicator: TA98, Metabolic Activation: HAMSTER, LIVER, S-9, AROCLOR 1254 (10 OR 30%), Method: PREINCUBATION): inactive; negative
- mutagenic call (Test System: AMES SALMONELLA TYPHIMURIUM, Strain/Indicator: TA98, Metabolic Activation: NONE, Method: PREINCUBATION): inactive; negative
- mutagenic call (Test System: AMES SALMONELLA TYPHIMURIUM, Strain/Indicator: TA98, Metabolic Activation: RAT, LIVER, S-9, AROCLOR 1254 (10 OR 30%), Method: PREINCUBATION): inactive; negative
- mutagenic call (Test System: AMES SALMONELLA TYPHIMURIUM, Strain/Indicator: TA100, Metabolic Activation: HAMSTER, LIVER, S-9, AROCLOR 1254 (10 OR 30%), Method: PREINCUBATION): inactive; negative
- mutagenic call (Test System: AMES SALMONELLA TYPHIMURIUM, Strain/Indicator: TA100, Metabolic Activation: NONE, Method: PREINCUBATION): inactive; negative
- mutagenic call (Test System: AMES SALMONELLA TYPHIMURIUM, Strain/Indicator: TA100, Metabolic Activation: RAT, LIVER, S-9, AROCLOR 1254 (10 OR 30%), Method: PREINCUBATION): inactive; negative
- mutagenic call (Test System: AMES SALMONELLA TYPHIMURIUM, Strain/Indicator: TA1535, Metabolic Activation: HAMSTER, LIVER, S-9, AROCLOR 1254 (10 OR 30%), Method: PREINCUBATION): inactive; negative
- mutagenic call (Test System: AMES SALMONELLA TYPHIMURIUM, Strain/Indicator: TA1535, Metabolic Activation: NONE, Method: PREINCUBATION): inactive; negative
- mutagenic call (Test System: AMES SALMONELLA TYPHIMURIUM, Strain/Indicator: TA1535, Metabolic Activation: RAT, LIVER, S-9, AROCLOR 1254 (10 OR 30%), Method: PREINCUBATION): inactive; negative

SMILES: C=C.CC(N)c1ccccc1.[Cl-].[Cl-].[Pt+2] (stereo unspecified)
- mutagenic call (Test System: AMES SALMONELLA TYPHIMURIUM, Strain/Indicator: TA92, Metabolic Activation: NONE, Method: STANDARD PLATE): inactive; negative
- mutagenic call [1]: inactive; negative
- mutagenic call [2]: inactive; negative
- mutagenic call (Test System: AMES SALMONELLA TYPHIMURIUM, Strain/Indicator: TA2410, Metabolic Activation: NONE, Method: STANDARD PLATE): inactive; negative

SMILES: Nc1cccc2c1C(=O)c1cccc(N)c1C2=O
- mutagenic call [1]: inactive; negative
- mutagenic call [3]: active; positive
- mutagenic call [2]: inactive; negative
- mutagenic call [4]: inactive; negative
- mutagenic call [5]: inactive; negative
- mutagenic call [6]: inactive; negative
- mutagenic call [7]: inactive; negative
- mutagenic call [8]: inactive; negative
- mutagenic call (Test System: AMES SALMONELLA TYPHIMURIUM, Strain/Indicator: TA1538, Metabolic Activation: RAT, LIVER, S-9, AROCLOR 1254, Method: STANDARD PLATE): active; positive

SMILES: CC1(C)C(C=C(Cl)Cl)C1C(=O)OC(C#N)c1cccc(Oc2ccccc2)c1 (stereo unspecified)
- mutagenic call (Test System: AMES SALMONELLA TYPHIMURIUM, Strain/Indicator: TA97, Metabolic Activation: BARLEY, HOMOGENATES, Method: STANDARD PLATE): inactive; negative
- mutagenic call (Test System: AMES SALMONELLA TYPHIMURIUM, Strain/Indicator: TA97, Metabolic Activation: NONE, Method: STANDARD PLATE): inactive; negative
- mutagenic call (Test System: AMES SALMONELLA TYPHIMURIUM, Strain/Indicator: TA97, Metabolic Activation: RAT, LIVER, S-9, DELOR 103, Method: STANDARD PLATE): inactive; negative
- mutagenic call (Test System: AMES SALMONELLA TYPHIMURIUM, Strain/Indicator: TA98, Metabolic Activation: BARLEY, HOMOGENATES, Method: STANDARD PLATE): inactive; negative
- mutagenic call [1]: inactive; negative
- mutagenic call [3]: inactive; negative
- mutagenic call (Test System: AMES SALMONELLA TYPHIMURIUM, Strain/Indicator: TA98, Metabolic Activation: RAT, LIVER, S-9, DELOR 103, Method: STANDARD PLATE): inactive; negative
- mutagenic call (Test System: AMES SALMONELLA TYPHIMURIUM, Strain/Indicator: TA100, Metabolic Activation: BARLEY, HOMOGENATES, Method: STANDARD PLATE): inactive; negative
- mutagenic call [2]: inactive; negative
- mutagenic call [4]: inactive; negative
- mutagenic call (Test System: AMES SALMONELLA TYPHIMURIUM, Strain/Indicator: TA100, Metabolic Activation: RAT, LIVER, S-9, DELOR 103, Method: STANDARD PLATE): inactive; negative
- mutagenic call (Test System: AMES SALMONELLA TYPHIMURIUM, Strain/Indicator: TA1535, Metabolic Activation: BARLEY, HOMOGENATES, Method: STANDARD PLATE): inactive; negative
- mutagenic call [5]: inactive; negative
- mutagenic call [6]: inactive; negative
- mutagenic call (Test System: AMES SALMONELLA TYPHIMURIUM, Strain/Indicator: TA1535, Metabolic Activation: RAT, LIVER, S-9, DELOR 103, Method: STANDARD PLATE): inactive; negative
- mutagenic call [7]: inactive; negative
- mutagenic call (Test System: AMES SALMONELLA TYPHIMURIUM, Strain/Indicator: TA1537, Metabolic Activation: RAT, LIVER, S-9, AROCLOR 1254, Method: STANDARD PLATE): inactive; negative
- mutagenic call [8]: inactive; negative
- mutagenic call (Test System: AMES SALMONELLA TYPHIMURIUM, Strain/Indicator: TA1538, Metabolic Activation: RAT, LIVER, S-9, DELOR 103, Method: STANDARD PLATE): inactive; negative
- mutagenic call (Test System: CHINESE HAMSTER V-79, Strain/Indicator: V-79/6-THIOGUANINE, Metabolic Activation: NONE, Method: STANDARD PLATE): inactive; negative
- mutagenic call (Test System: CHINESE HAMSTER V-79, Strain/Indicator: V-79/6-THIOGUANINE, Metabolic Activation: RAT HEPATOCYTES, Method: STANDARD PLATE): inactive; negative
- mutagenic call (Test System: CHINESE HAMSTER V-79, Strain/Indicator: V-79/OUABAIN, Metabolic Activation: NONE, Method: STANDARD PLATE): inactive; negative
- mutagenic call (Test System: CHINESE HAMSTER V-79, Strain/Indicator: V-79/OUABAIN, Metabolic Activation: RAT HEPATOCYTES, Method: STANDARD PLATE): inactive; negative
- mutagenic call (Test System: E. COLI, Strain/Indicator: WP2, Metabolic Activation: NONE, Method: STANDARD PLATE): inactive; negative
- mutagenic call (Test System: E. COLI, Strain/Indicator: WP2, Metabolic Activation: RAT, LIVER, S-9, AROCLOR 1254, Method: STANDARD PLATE): inactive; negative

SMILES: O=C1OC2(c3cc(Br)c(O)c(Br)c3Oc3c2cc(Br)c(O)c3Br)c2c(Cl)ccc(Cl)c21
- mutagenic call (End Point: IN VIVO MICRONUCLEUS, Test System: BONE MARROW POLYCHROMATIC ERYTHROCYTES, Species: MOUSE, Strain/Sex: DDY/MALE, Route: IP): inactive; negative
